Assay results as given in patent US12098147B2, “Compound having novel structure, complex comprising same, anti-cancer pharmaceutical composition, and anti-cancer drug” (ETNOVA THERAPEUTICS CORP., priority 2018, dated 2024).

Experiments:
MCF-7 = assay: CCK-8 cell viability, MCF-7 breast cancer cell line; type: cell-based, human; conditions: serum-free medium, 24 hours, mean ± SD of 2 to 3 experiments
Method: (§1) To identify the anticancer effect of the compounds L1, L2, and L3 according to Examples 1 to 3 of the present disclosure, and the complexes L1Pt, L2Pt, and L3Pt according to Examples 4 to 6 of the disclosure, the cell viability analysis of cancer cells using CCK-8 was performed on several cancer cell lines (colorectal cancer cell line (HT-29 cell line), breast cancer cell line (MCF-7 and MDA-MB-231), cervical cancer cell line (HeLa cell line), liver cancer cell line (Huh-7 and HepG2), brain glioma cell line (C6), lung cancer (A549), prostate cancer (PC3), kidney cancer (Caki-2), normal liver cell line (AML-12), embryonic kidney cell line (HEK-293), neural stem cell line (NE-4C) and normal breast epithelial cell line (MCF10a)).
(§2) CCK-8 (Cell counting kit-8) is analyzed using a highly water-soluble tetrazolium salt-[…]. [2-(2-methoxy-4-nitrophenyl)-3-(4-nitrophenyl)(2,4-disulfophenyl)-2H-tetrazolium, monosodium salt] is reduced under the presence of an electron medium to produces a water-soluble formazan orange dye. The amount of the formazan dye produced by dehydrogenase in a cell is directly proportional to the number of living cells.
(§3) In an experimental method for evaluating the properties of the compounds according to the present disclosure, various cancer cell lines derived from humans and normal cell lines of each tissue derived from humans and mice were used in this experiment. A complete growth medium corresponding to each cell line and having 10% of heat-inactivated FBS added thereto was used to maintain corresponding cells. The maintained cells were suspended in a volume of 200 μl at a density of 1 or 1.5×10^4 cells and planted in each well of a 96 well plate. The cells were attached to a 37° C. and 5% CO2 incubator for more than 14 hours, and we waited for a stable state. The next day, we removed the medium from the well. 100 μl of serum-free medium containing drugs of various concentrations (0 (control), 2.5, 5, 10, 20, 30, 40, 50, 100, 200 μM) was added to each well and the cells was cultured therein. On 22 hours after the incubation, 10 μl of CCK-8 solution was added to each well, followed by incubation for 2 hours. A plate on which the culture was completed was measured in terms of absorbance at 450 nm using a microplate reader.
(§4) Cell Viability Calculation:
(§5) • A: Absorbance value measured in a control well • B: Absorbance value measured in a well containing the drug
(§6) In Table 1 below, each compound was applied to the cells at 0, 2.5, 5, 10, 20, 30, 40, 50, 100, and 200 μM, and the cells was cultured in a medium free of serum for 24 hours. The measured absorbance value was converted to a % value based on a value of 0, such that a IC50 value was calculated. Each experiment was performed 2 to 3 times and a standard deviation value was obtained.

AML12 = assay: CCK-8 cell viability, AML-12 normal liver cell line; type: cell-based; conditions: serum-free medium, 24 hours, CCK-8; mean ± SD of 2 to 3 experiments
Method: as §2, §3, §4, §5, §6

MCF10a = assay: CCK-8 cell viability, MCF10a normal breast epithelial cell line; type: cell-based; conditions: serum-free medium, 24 hours, CCK-8; mean ± SD of 2 to 3 experiments
Method: as §1, §2, §3, §4, §5, §6

Caki-2 = assay: CCK-8 cell viability, Caki-2 kidney cancer cell line; type: cell-based, human; conditions: serum-free medium, 24 hours, mean ± SD of 2 to 3 experiments
Method: as §1, §2, §3, §4, §5, §6

NE-4C = assay: CCK-8 cell viability, NE-4C neural stem cell line; type: cell-based; conditions: serum-free medium, 24 hours, CCK-8; mean ± SD of 2 to 3 experiments; read-out: IC50 NC-4C (Neural stem cell)
Method: as §2, §3, §4, §5, §6

A549 = assay: CCK-8 cell viability, A549 lung cancer cell line; type: cell-based, human; conditions: serum-free medium, 24 hours, mean ± SD of 2 to 3 experiments
Method: as §1, §2, §3, §4, §5, §6

PC3 = assay: CCK-8 cell viability, PC3 prostate cancer cell line; type: cell-based, human; conditions: serum-free medium, 24 hours, mean ± SD of 2 to 3 experiments
Method: as §1, §2, §3, §4, §5, §6

HEK-293 = assay: CCK-8 cell viability, HEK-293 embryonic kidney cell line; type: cell-based; conditions: serum-free medium, 24 hours, mean ± SD of 2 to 3 experiments, read-out: IC50 HEK293 (embryonic kidney)
Method: as §1, §2, §3, §4, §5, §6

HepG2 = assay: CCK-8 cell viability, HepG2 liver cancer cell line; type: cell-based, human; conditions: serum-free medium, 24 hours, mean ± SD of 2 to 3 experiments
Method: as §1, §2, §3, §4, §5, §6

MDA-MB-231 = assay: CCK-8 cell viability, MDA-MB-231 breast cancer cell line; type: cell-based, human; conditions: serum-free medium, 24 hours, mean ± SD of 2 to 3 experiments
Method: as §1, §2, §3, §4, §5, §6

[1] = test system: several cancer cell lines; assay: CCK-8 cell viability, panel of cancer cell lines compared in words (FIGS. 3a to 3e); type: cell-based, human; conditions: Log IC50, FIGS. 3a to 3e; no comparator
Method: as §1, §2, §3
Further, FIGS. 3a to 3e show a graph in which a IC50 value which is obtained based on 2 to 3 times executions of the cell viability analysis is converted to a Log IC50 value. […] The comparative reliability values for BTA were expressed as […], ##p<0.01, and ## #p<0.001. A red line represents the value of cisplatin. A blue line represents the value of BTA.

Huh-7 = assay: CCK-8 cell viability, Huh-7 liver cancer cell line; type: cell-based, human; conditions: serum-free medium, 24 hours, mean ± SD of 2 to 3 experiments
Method: as §1, §2, §3, §4, §5, §6

HeLa cell line = assay: CCK-8 cell viability, HeLa cervical cancer cell line; type: cell-based, human; conditions: serum-free medium, 24 hours, mean ± SD of 2 to 3 experiments
Method: as §1, §2, §3, §4, §5, §6

C6 = assay: CCK-8 cell viability, C6 brain glioma cell line; type: cell-based, human; conditions: serum-free medium, 24 hours, mean ± SD of 2 to 3 experiments
Method: as §1, §2, §3, §4, §5, §6

HT-29 cell line = assay: CCK-8 cell viability, HT-29 colorectal cancer cell line; type: cell-based, human; conditions: serum-free medium, 24 hours, mean ± SD of 2 to 3 experiments
Method: as §1, §2, §3, §4, §5, §6

With “benzothiazole aniline [BTA, reference compound]” the IC50 (MCF-7) was 104 ± 28.6 µM, the IC50 (AML12) was > 500 µM and the IC50 (MCF10a) was 401 ± 136 µM. The IC50 (Caki-2) was 463 ± 44.1 µM, the IC50 (NE-4C) was 60.9 ± 2.93 µM and the IC50 (A549) was > 500 µM. For the same substance, the IC50 (PC3) was 182 ± 7.79 µM, the IC50 (HEK-293) was > 500 µM and the IC50 (HepG2) was 52 ± 5.71 µM. The IC50 (MDA-MB-231) was > 500 µM, the “effect on cancer cell lines, in words” value [1] was “did not have greater effect on colorectal cancer, brain glioma, and lung cancer” and the IC50 (Huh-7) was 406 ± 35.7 µM. The IC50 (HeLa cell line) was 76.4 ± 23.4 µM, the IC50 (C6) was 425 ± 47.8 µM and the IC50 (HT-29 cell line) was 275 ± 5.03 µM.
